Assay [1] concerns the target T1, human recombinant HDAC1 (Homo sapiens, UniProt Q13547).
T1 construct: purchased Enzo Life Science BML-SE456
As to the kind of experiment: HDAC1 enzyme activity inhibition test (HDAC Fluorometric Drug Discovery Kit). The format is biochemical. The settings on record: 30° C., 60 minutes, 10 μM substrate. In outline:
(§1)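 Recombinant human HDAC1 or HDAC6 (0.3 μg) reacted with 10 μM Fluor de Lys SIRT1 substrate and 5-fold diluted compound for 60 min at 30 °C. Developer II added 30 min; fluorescence read at Ex 360/Em 460 and IC50 calculated.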

Assay [2] has as its target T2, human recombinant HDAC6 (Homo sapiens, UniProt Q9UBN7).
T2 construct: purchased Calbiochem 382180
T2 sequence (Q9UBN7 1-1215): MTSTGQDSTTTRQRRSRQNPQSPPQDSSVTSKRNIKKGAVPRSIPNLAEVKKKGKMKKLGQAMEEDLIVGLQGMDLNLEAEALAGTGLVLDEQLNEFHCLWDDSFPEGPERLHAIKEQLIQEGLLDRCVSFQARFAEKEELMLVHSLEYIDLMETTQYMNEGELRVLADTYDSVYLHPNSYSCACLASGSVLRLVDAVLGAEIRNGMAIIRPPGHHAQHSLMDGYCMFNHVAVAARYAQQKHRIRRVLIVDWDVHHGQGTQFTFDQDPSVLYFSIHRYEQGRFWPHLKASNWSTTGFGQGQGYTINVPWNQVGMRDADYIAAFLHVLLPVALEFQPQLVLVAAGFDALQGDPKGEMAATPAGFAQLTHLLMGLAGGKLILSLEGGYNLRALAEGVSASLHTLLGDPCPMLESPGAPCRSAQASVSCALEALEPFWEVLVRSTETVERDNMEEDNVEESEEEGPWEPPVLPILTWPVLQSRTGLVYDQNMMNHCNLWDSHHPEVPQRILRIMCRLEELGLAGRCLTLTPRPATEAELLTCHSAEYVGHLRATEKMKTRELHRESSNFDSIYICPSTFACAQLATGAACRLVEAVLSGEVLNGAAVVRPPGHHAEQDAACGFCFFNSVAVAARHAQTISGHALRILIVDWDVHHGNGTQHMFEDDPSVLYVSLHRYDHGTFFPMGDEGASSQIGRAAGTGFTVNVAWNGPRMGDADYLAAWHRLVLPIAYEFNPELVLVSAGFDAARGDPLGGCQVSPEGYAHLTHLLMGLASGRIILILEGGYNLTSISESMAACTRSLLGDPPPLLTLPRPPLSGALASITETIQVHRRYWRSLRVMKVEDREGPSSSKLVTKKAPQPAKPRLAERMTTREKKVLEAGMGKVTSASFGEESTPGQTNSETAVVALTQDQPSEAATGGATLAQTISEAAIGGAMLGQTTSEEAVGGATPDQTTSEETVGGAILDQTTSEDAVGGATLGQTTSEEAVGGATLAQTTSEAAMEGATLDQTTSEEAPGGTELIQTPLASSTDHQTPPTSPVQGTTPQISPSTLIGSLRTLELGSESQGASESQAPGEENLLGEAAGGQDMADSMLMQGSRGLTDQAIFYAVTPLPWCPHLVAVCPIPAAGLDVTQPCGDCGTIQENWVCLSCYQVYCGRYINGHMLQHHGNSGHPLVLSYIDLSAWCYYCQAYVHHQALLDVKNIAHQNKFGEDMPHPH
As to the kind of experiment: HDAC6 enzyme activity inhibition test (HDAC Fluorometric Drug Discovery Kit). The settings on record: for HDAC6 selectivity (fold): HDAC6 over HDAC1; for IC50: human recombinant HDAC6, same protocol as HDAC1. The format is biochemical. In outline: as §1

From patent US20260327214A1, “1,3,4-OXADIAZOLE DERIVATIVE COMPOUNDS AS HISTONE DEACETYLASE 6 INHIBITOR, AND USES THEREOF” (CHONG KUN DANG PHARMACEUTICAL CORP., priority 2022, published 2026) come the findings set out here.

In general, IC50 refers to the concentration needed to halve the response being measured.

T1 sequence (Q13547 whole entry): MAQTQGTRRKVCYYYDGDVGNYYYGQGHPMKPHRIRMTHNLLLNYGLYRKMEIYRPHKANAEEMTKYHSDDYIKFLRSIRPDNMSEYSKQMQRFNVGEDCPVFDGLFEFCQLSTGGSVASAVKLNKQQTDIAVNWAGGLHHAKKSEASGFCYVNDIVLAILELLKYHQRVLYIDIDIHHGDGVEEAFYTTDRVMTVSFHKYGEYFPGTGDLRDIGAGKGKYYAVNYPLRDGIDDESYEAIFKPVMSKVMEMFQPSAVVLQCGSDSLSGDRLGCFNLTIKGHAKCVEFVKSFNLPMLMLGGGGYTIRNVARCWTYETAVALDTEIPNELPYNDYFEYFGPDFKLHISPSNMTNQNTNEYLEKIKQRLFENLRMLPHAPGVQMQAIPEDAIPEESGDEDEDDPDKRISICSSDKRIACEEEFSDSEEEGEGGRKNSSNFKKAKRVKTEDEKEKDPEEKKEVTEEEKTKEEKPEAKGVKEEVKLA

As for `Fc1cc(-c2nnc(C(F)F)o2)cnc1Cn1nc(-c2cccc(CN3CCCCC3)c2)oc1=S` [Compound 119, 3-[[5-[5-(difluoromethyl)-1,3,4-oxadiazol-2-yl]-3-fluoro-2-pyridyl]methyl]-5-[3-(1-piperidylmethyl)phenyl]-1,3,4-oxadiazol-2-thione], in assay [1], the IC50 was more than 50 µM. Further, in assay [2], the “HDAC6 selectivity (fold)” value is given as 590 fold and the IC50 was found to be 0.0848 µM.
In the same order, the values of `CCN(CC)Cc1cccc(-c2nn(Cc3ncc(-c4nnc(C(F)F)o4)cc3F)c(=S)o2)c1` [Compound 120, 5-[3-(diethylaminomethyl)phenyl]-3-[[5-[5-(difluoromethyl)-1,3,4-oxadiazol-2-yl]-3-fluoro-2-pyridyl]methyl]-1,3,4-oxadiazol-2-thione] are more than 50 µM, 630 fold and 0.0795 µM.
Take `CN(C)Cc1ccc(-c2nn(Cc3ccc(-c4nnc(C(F)F)o4)cn3)c(=S)o2)s1` [Compound 121, 3-[[5-[5-(difluoromethyl)-1,3,4-oxadiazol-2-yl]-2-pyridyl]methyl]-5-[5-[(dimethylamino)methyl]-2-thienyl]-1,3,4-oxadiazol-2-thione]: the concentration for half-maximal inhibition (IC50) in assay [1] is more than 50 µM; in assay [2], 0.0782 µM. For the same compound, the “HDAC6 selectivity (fold)” value in assay [2] amounted to 639 fold.
For `CCN(CC)Cc1ccc(-c2nn(Cc3ccc(-c4nnc(C(F)F)o4)cn3)c(=S)o2)s1` [Compound 122, 5-[5-(diethylaminomethyl)-2-thienyl]-3-[[5-[5-(difluoromethyl)-1,3,4-oxadiazol-2-yl]-2-pyridyl]methyl]-1,3,4-oxadiazol-2-thione], in assay [1], the half-inhibitory concentration (IC50) was more than 50 µM. In assay [2], the “HDAC6 selectivity (fold)” value is recorded as 453 fold and the half-inhibitory concentration (IC50) was 0.11 µM.
The matching figures for `FC(F)c1nnc(-c2ccc(Cn3nc(-c4ccc(CN5CCC5)s4)oc3=S)nc2)o1` [Compound 123, 5-[5-(azetidine-1-ylmethyl)-2-thienyl]-3-[[5-[5-(difluoromethyl)-1,3,4-oxadiazol-2-yl]-2-pyridyl]methyl]-1,3,4-oxadiazol-2-thione]: more than 50 µM, 1109 fold and 0.0451 µM.
The matching figures for `FC(F)c1nnc(-c2ccc(Cn3nc(-c4ccc(CN5CC[C@@H](F)C5)s4)oc3=S)nc2)o1` [Compound 124, 3-[[5-[5-(difluoromethyl)-1,3,4-oxadiazol-2-yl]-2-pyridyl]methyl]-5-[5-[[(3R)-3-fluoropyrrolidin-1-yl]methyl]-2-thienyl]-1,3,4-oxadiazol-2-thione]: more than 50 µM, 491 fold and 0.102 µM.
The matching figures for `FC(F)c1nnc(-c2ccc(Cn3nc(-c4ccc(CN5CC[C@H](F)C5)s4)oc3=S)nc2)o1` [Compound 125, 3-[[5-[5-(difluoromethyl)-1,3,4-oxadiazol-2-yl]-2-pyridyl]methyl]-5-[5-[[(3S)-3-fluoropyrrolidin-1-yl]methyl]-2-thienyl]-1,3,4-oxadiazol-2-thione]: more than 50 µM, 563 fold and 0.0888 µM.
Take `CN1CCN(c2nccc(-c3nn(Cc4ccc(-c5nnc(C(F)F)o5)cn4)c(=S)o3)n2)CC1` [Compound 126, 3-[[5-[5-(difluoromethyl)-1,3,4-oxadiazol-2-yl]-2-pyridyl]methyl]-5-[2-(4-methylpiperazin-1-yl)pyrimidin-4-yl]-1,3,4-oxadiazol-2-thione]: the IC50 in assay [1] was more than 50 µM. Further, in assay [2], the “HDAC6 selectivity (fold)” value is listed as 977 fold and the IC50 is 0.0512 µM.
With `CC(C)N1CCN(c2nccc(-c3nn(Cc4ccc(-c5nnc(C(F)F)o5)cn4)c(=S)o3)n2)CC1` [Compound 127, 3-[[5-[5-(difluoromethyl)-1,3,4-oxadiazol-2-yl]-2-pyridyl]methyl]-5-[2-(4-isopropylpiperazin-1-yl)pyrimidin-4-yl]-1,3,4-oxadiazol-2-thione], the half-inhibitory concentration (IC50) in assay [1] was more than 50 µM. For the same compound, in assay [2], the “HDAC6 selectivity (fold)” value was 879 fold and the concentration for half-maximal inhibition (IC50) was found to be 0.0569 µM.
The matching figures for `CN(C)Cc1ccc(-c2nn(Cc3ncc(-c4nnc(C(F)F)o4)cc3F)c(=S)o2)s1` [Compound 128, 3-[[5-[5-(difluoromethyl)-1,3,4-oxadiazol-2-yl]-3-fluoro-2-pyridyl]methyl]-5-[5-[(dimethylamino)methyl]-2-thienyl]-1,3,4-oxadiazol-2-thione]: more than 50 µM, 583 fold and 0.0857 µM.
The matching figures for `CCN(CC)Cc1ccc(-c2nn(Cc3ncc(-c4nnc(C(F)F)o4)cc3F)c(=S)o2)s1` [Compound 129, 5-[5-(diethylaminomethyl)-2-thienyl]-3-[[5-[5-(difluoromethyl)-1,3,4-oxadiazol-2-yl]-3-fluoro-2-pyridyl]methyl]-1,3,4-oxadiazol-2-thione]: more than 50 µM, 457 fold and 0.109 µM.
The matching figures for `Fc1cc(-c2nnc(C(F)F)o2)cnc1Cn1nc(-c2ccc(CN3CCC3)s2)oc1=S` [Compound 130, 5-[5-(azetidine-1-ylmethyl)-2-thienyl]-3-[[5-[5-(difluoromethyl)-1,3,4-oxadiazol-2-yl]-3-fluoro-2-pyridyl]methyl]-1,3,4-oxadiazol-2-thione]: more than 50 µM, 750 fold and 0.0667 µM.
As for `CN(C)Cc1cc(-c2nn(Cc3ccc(-c4nnc(C(F)F)o4)cn3)c(=S)o2)cs1` [Compound 131, 3-[[5-[5-(difluoromethyl)-1,3,4-oxadiazol-2-yl]-2-pyridyl]methyl]-5-[5-[(dimethylamino)methyl]-3-thienyl]-1,3,4-oxadiazol-2-thione], in assay [1], the IC50 was more than 50 µM. Besides, in assay [2], the “HDAC6 selectivity (fold)” value is listed as 612 fold and the 50% inhibitory concentration (IC50) is 0.0817 µM.
The matching figures for `O=c1oc(-c2ccc(CN3CCC3)cc2)nn1Cc1ccc(-c2nnc(C(F)F)o2)cn1` [Compound 132, 5-[4-(azetidin-1-ylmethyl)phenyl]-3-[[5-[5-(difluoromethyl)-1,3,4-oxadiazol-2-yl]-2-pyridyl]methyl]-1,3,4-oxadiazol-2-one]: more than 50 µM, 484 fold and 0.103 µM.
In the same order, the values of `O=c1oc(-c2ccc(CN3CCCCC3)cc2)nn1Cc1ccc(-c2nnc(C(F)F)o2)cn1` [Compound 133, 3-[[5-[5-(difluoromethyl)-1,3,4-oxadiazol-2-yl]-2-pyridyl]methyl]-5-[4-(1-piperidylmethyl)phenyl]-1,3,4-oxadiazol-2-one] are more than 50 µM, 442 fold and 0.113 µM.
In the same order, the values of `FC(F)c1nnc(-c2ccc(Cn3nc(-c4csc(CN5CCC5)c4)oc3=S)nc2)o1` [Compound 134, 5-[5-(azetidine-1-ylmethyl)-3-thienyl]-3-[[5-[5-(difluoromethyl)-1,3,4-oxadiazol-2-yl]-2-pyridyl]methyl]-1,3,4-oxadiazol-2-thione] are more than 50 µM, 680 fold and 0.0735 µM.
